One assay concerns the target T1, ACK1 (Homo sapiens, UniProt Q07912).
T1 construct: a fusion of an N-terminal (His)6 Tag with amino acids 117 to 489 of ACK1; (His)6 (N); made in house; host or cells: baculovirus infected Hi-5 insect cells
The assay can be described thus: ACK1 Enzymatic Assay (PGT/autophosphorylation ELISA). Type of assay: biochemical. As for the experimental part:
IC50 values of compounds of the invention may be assessed as follows. The ACK1 kinase assay utilizes a protein expressed in baculovirus infected Hi-5 cells (a fusion of an N-terminal (His)6 Tag with amino acids 117 to 489 of ACK1) purified by affinity chromatography on a Ni-NTA column. The substrate for the reaction is ACK1 itself (autophosphorylation) and poly-Glutamic acid-Tyrosine (PGT (4:1), Sigma catalog #PO275). The PGT is coated to Nunc 96 well plates at 80 μg/mL overnight at 4° C. The morning after coating, the plates are washed twice, and […] reaction buffer (10 mM Hepes, pH 7.6; 20 mM MgCl2; 75 mM NaCl, 0.125% TWEEN20 (polyoxyethylene sorbitan monolaurate); 1 mM DTT) with 5 μM ATP are added to each well. Test compounds are added in […] DMSO, and the reaction is started by addition of […] kinase in assay buffer. The reaction proceeds for 2 h at room temperature. Next, the plates are washed four times, and the level of tyrosine phosphorylation in a given well is quantified by standard ELISA assay utilizing a phosphotyrosine antibody (PY20, Pierce).
In general terms: ELISA stands for enzyme-linked immunosorbent assay.

In a further assay the target is T2, LCK (Homo sapiens, UniProt P06239).
T2 construct: 15 μL of LCK KD GST (225-509) for a final volume of 40 μL; GST
The assay is described as follows: LCK-Homogeneous Time Resolved Fluorescent (HTRF) Kinase Assay. Type of assay: biochemical. How it is done: LCK-Homogeneous Time Resolved Fluorescent (HTRF) Kinase Assay
The LCK HTRF assay begins with LCK in the presence of ATP phosphorylating the biotinylated peptide Gastrin. The reaction incubates for 90 min. To quench the assay detection reagents are added which both stop the reaction by diluting out the enzyme and chelating the metals due to the presence of EDTA. Once the detection reagents are added the assay incubates for 30 min to allow for equilibration of the detection reagents.
Buffer conditions are as follows: 50 mM HEPES pH 7.5, 50 mM NaCl, 20 mM MgCl2, 5 mM MnCl2, 2 mM DTT, 0.05% BSA.
The assay is quenched and stopped with 160 μL of a detection reagent. Detection reagents are as follows: Buffer made of 50 mM Tris, pH 7.5, 100 mM NaCl, 3 mM EDTA, 0.05% BSA, 0.1% Tween20.
The assay plate is read in either a Discovery or a RubyStar.

The test system of the next assay is C8 cells. The assay can be described thus: ACK1 Cell Based Assay (survival under low serum, Cytotox One). To be noted: ACK1-dependent C8 cells, 0.125% FCS, 20 to 24 h; read-out: ACK1 Cell-based IC50. As for the experimental part:
ACK1 Cell Based Assay The ACK1 cell based assay is designed to find inhibitors of ACK1 kinase activity which would be prime candidates for the development of anticancer drugs. […] After 20 to 24 h incubation at 37° C. and 5% CO2, cell viability is determined using the Cytotox One kit (Promega) according to the manufacturer's instructions.

Broadly, the Ki is a measure of affinity in units of concentration, obtained from inhibition or displacement. The term IC50 denotes the midpoint of a concentration-inhibition curve.

T1 sequence (Q07912 117-489): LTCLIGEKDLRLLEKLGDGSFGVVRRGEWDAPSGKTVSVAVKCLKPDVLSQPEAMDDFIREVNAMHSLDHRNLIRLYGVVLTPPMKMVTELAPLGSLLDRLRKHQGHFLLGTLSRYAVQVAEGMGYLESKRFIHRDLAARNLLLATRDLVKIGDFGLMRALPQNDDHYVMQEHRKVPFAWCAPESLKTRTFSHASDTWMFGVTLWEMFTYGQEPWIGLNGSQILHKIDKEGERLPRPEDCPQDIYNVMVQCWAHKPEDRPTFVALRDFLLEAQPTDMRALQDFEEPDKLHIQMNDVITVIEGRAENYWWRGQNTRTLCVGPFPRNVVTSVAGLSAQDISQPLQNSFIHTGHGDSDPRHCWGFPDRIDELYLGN
T2 sequence (P06239 225-509): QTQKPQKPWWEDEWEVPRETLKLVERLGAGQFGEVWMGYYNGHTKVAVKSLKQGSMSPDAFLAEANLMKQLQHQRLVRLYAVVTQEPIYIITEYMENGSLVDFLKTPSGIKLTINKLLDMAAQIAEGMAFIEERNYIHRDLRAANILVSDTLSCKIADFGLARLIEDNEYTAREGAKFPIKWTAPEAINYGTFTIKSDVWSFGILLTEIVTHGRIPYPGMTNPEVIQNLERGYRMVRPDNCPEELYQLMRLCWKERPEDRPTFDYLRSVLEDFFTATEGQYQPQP

As for “(R)—N^3-(2,6-Dimethylphenyl)-N^6-(4-fluorophenyl)-1-(3-(2-(methoxymethyl)pyrrolidin-1-yl)propyl)-1H-indazole-3,6-diamine [Compound 65]”, the values for the Ki on ACK1 and at LCK were over 100 nM and under 10 nM, respectively. Further, in the assay with C8 cells, the 50% inhibitory concentration (IC50) was over 100 nM.
Turning to “Ethyl-2-(3-(2,6-dimethylphenylamino)-6-(phenylamino)-1H-indazole-1-yl)acetate [Compound 64]”, the values for the Ki on ACK1 and on LCK were 10 to 100 nM and under 10 nM, respectively. Also, the IC50 with C8 cells is over 100 nM.
Consider “N^3-(2,6-Dimethylphenyl)-1-(3-methoxy-3-methylbutyl)-1H-indazole-3,6-diamine [Compound 58]”, for which the Ki at ACK1 is over 100 nM; at LCK, under 10 nM. The IC50 with C8 cells was over 100 nM.
For the substance “N^3-(2,6-Dimethylphenyl)-N^6-phenyl-1-((tetrahydro-2H-pyran-4-yl)methyl)-1H-indazole-3,6-diamine [Compound 63]”, the results for the Ki on ACK1 and on LCK were 10 to 100 nM and under 10 nM, respectively. Further, the IC50 in the assay on C8 cells was over 100 nM.
As to “N^3-(2,6-dichlorophenyl)-1-(3-methoxy-3-methylbutyl)-N^6-[4-(4-methyl-piperazin-1-yl)-phenyl]-1H-indazole-3,6-diamine [Compound 80]”, the Ki at ACK1 and on LCK was under 10 nM in each case. In the assay on C8 cells, the IC50 lay in the range of 10 to 100 nM.
As to “N^3-(2,6-dimethylphenyl)-1-(2-(4-methylpiperazin-1-yl)ethyl)-N^6-phenyl-1H-indazole-3,6-diamine [Compound 72]”, the Ki was 10 to 100 nM on ACK1 and under 10 nM on LCK. Also, the IC50 in the assay on C8 cells was over 100 nM.

These data come from patent US7763624B2, “Substituted pyrazolo[3,4-d]pyrimidines as ACK-1 and LCK inhibitors” (Amgen Inc., priority 2005, dated 2010).
